According to patent US11446353B2, “Compositions and methods for the treatment of fungal infections” (priority 2014, dated 2022):

Assays:
[1] = system: Coccidioides posadasii Δcts2/Δard1/Δcts3; type: cell-based
[2] = system: Coccidioides posadasii Δcts2/Δard1/Δcts3

SMILES: CC/C(=C(\c1ccccc1)c1ccc(OCCN(C)C)cc1)c1ccccc1 [Tamoxifen]
- hit strength in screen [1]: strong positive hit
- fungal growth inhibitory properties [2]: strong fungal growth inhibitory properties
